Source: the NIST ThermoML archive (doi:10.1016/j.jct.2012.05.023)
Numbers after ± are expanded uncertainties.

Assays:
[1] = xn = mol fraction of the nth substance listed; details: 101.3 kPa, Liquid; for speed of sound: Sing-around technique in a fixed-path interferometer; for mass density: Vibrating tube method
[2] = refractive index (Na D-line) (dimensionless); xn = mol fraction of the nth substance listed; details: 101.3 kPa, Liquid, Standard Abbe refractometry

c1ccc2c(c1)CCCC2 [1,2,3,4-tetrahydronaphthalene] + CCCCCCCCCCCC
Details	mass density, [1] [kg/m3]	refractive index, [2]	speed of sound, [1] [m/s]
293.15 K, x1 = 0.1021	763.04 ± 0.24	1.42964 ± 0.00037	1308.1 ± 1.2
293.15 K, x1 = 0.2015	777.99 ± 0.24	1.43768 ± 0.00037	1318.1 ± 1.2
293.15 K, x1 = 0.307	795.31 ± 0.24	1.44691 ± 0.00037	1331.6 ± 1.2
293.15 K, x1 = 0.3998	811.97 ± 0.24	1.45578 ± 0.00037	1344 ± 1.2
293.15 K, x1 = 0.4985	831.41 ± 0.24	1.46621 ± 0.00037	1359.7 ± 1.2
293.15 K, x1 = 0.5961	852.66 ± 0.24	1.47773 ± 0.00037	1377 ± 1.2
293.15 K, x1 = 0.7019	878.22 ± 0.24	1.49155 ± 0.00037	1399.4 ± 1.2
293.15 K, x1 = 0.8012	905.15 ± 0.24	1.5062 ± 0.00037	1423.8 ± 1.2
293.15 K, x1 = 0.8998	935.03 ± 0.25	1.52267 ± 0.00037	1453.4 ± 1.2
293.15 K, x1 = 1	969.52 ± 0.23	1.54155 ± 0.00037	1489.5 ± 1.3
303.15 K, x1 = 0.1021	755.74 ± 0.24	1.42538 ± 0.00037	1269.8 ± 1.2
303.15 K, x1 = 0.2015	770.65 ± 0.24	1.43335 ± 0.00037	1280 ± 1.2
303.15 K, x1 = 0.307	787.92 ± 0.24	1.44249 ± 0.00037	1293.4 ± 1.2
303.15 K, x1 = 0.3998	804.53 ± 0.24	1.45151 ± 0.00037	1306 ± 1.2
303.15 K, x1 = 0.4985	823.91 ± 0.24	1.46183 ± 0.00037	1321.7 ± 1.2
303.15 K, x1 = 0.5961	845.1 ± 0.24	1.47333 ± 0.00037	1339 ± 1.2
303.15 K, x1 = 0.7019	870.59 ± 0.24	1.48719 ± 0.00037	1361.2 ± 1.2
303.15 K, x1 = 0.8012	897.44 ± 0.24	1.50172 ± 0.00037	1385.4 ± 1.2
303.15 K, x1 = 0.8998	927.23 ± 0.25	1.51815 ± 0.00037	1414.7 ± 1.2
303.15 K, x1 = 1	961.59 ± 0.23	1.53687 ± 0.00037	1450.1 ± 1.2
313.15 K, x1 = 0.1021	748.42 ± 0.24	1.42102 ± 0.00037	1232.1 ± 1.2
313.15 K, x1 = 0.2015	763.25 ± 0.24	1.42887 ± 0.00037	1242.2 ± 1.2
313.15 K, x1 = 0.307	780.5 ± 0.24	1.43817 ± 0.00037	1255.9 ± 1.2
313.15 K, x1 = 0.3998	797.07 ± 0.24	1.44709 ± 0.00037	1268.5 ± 1.2
313.15 K, x1 = 0.4985	816.39 ± 0.24	1.45748 ± 0.00037	1284.3 ± 1.2
313.15 K, x1 = 0.5961	837.52 ± 0.24	1.46884 ± 0.00037	1301.5 ± 1.2
313.15 K, x1 = 0.7019	862.94 ± 0.24	1.48267 ± 0.00037	1323.6 ± 1.2
313.15 K, x1 = 0.8012	889.71 ± 0.24	1.49723 ± 0.00037	1347.6 ± 1.2
313.15 K, x1 = 0.8998	919.41 ± 0.25	1.51359 ± 0.00037	1376.6 ± 1.2
313.15 K, x1 = 1	953.66 ± 0.23	1.53216 ± 0.00037	1411.5 ± 1.2
323.15 K, x1 = 0.1021	741.07 ± 0.25	1.4166 ± 0.00037	1194.9 ± 1.2
323.15 K, x1 = 0.2015	755.85 ± 0.24	1.42456 ± 0.00037	1205.4 ± 1.2
323.15 K, x1 = 0.307	773.06 ± 0.24	1.43374 ± 0.00037	1218.9 ± 1.2
323.15 K, x1 = 0.3998	789.61 ± 0.24	1.44258 ± 0.00037	1231.6 ± 1.2
323.15 K, x1 = 0.4985	808.85 ± 0.24	1.45304 ± 0.00037	1247.4 ± 1.2
323.15 K, x1 = 0.5961	829.89 ± 0.24	1.46437 ± 0.00037	1264.5 ± 1.2
323.15 K, x1 = 0.7019	855.26 ± 0.24	1.47817 ± 0.00037	1286.7 ± 1.2
323.15 K, x1 = 0.8012	881.98 ± 0.24	1.49269 ± 0.00037	1310.5 ± 1.2
323.15 K, x1 = 0.8998	911.58 ± 0.25	1.50898 ± 0.00037	1339.2 ± 1.2
323.15 K, x1 = 1	945.72 ± 0.23	1.52752 ± 0.00037	1373.6 ± 1.2
333.15 K, x1 = 0.1021	733.68 ± 0.25	1.41223 ± 0.00037	1158.3 ± 1.2
333.15 K, x1 = 0.2015	748.42 ± 0.25	1.42011 ± 0.00037	1168.6 ± 1.2
333.15 K, x1 = 0.307	765.58 ± 0.24	1.42925 ± 0.00037	1182.6 ± 1.2
333.15 K, x1 = 0.3998	782.08 ± 0.24	1.43819 ± 0.00037	1195.2 ± 1.2
333.15 K, x1 = 0.4985	801.28 ± 0.24	1.44856 ± 0.00037	1211 ± 1.2
333.15 K, x1 = 0.5961	822.25 ± 0.24	1.45998 ± 0.00037	1228.2 ± 1.2
333.15 K, x1 = 0.7019	847.55 ± 0.24	1.47364 ± 0.00037	1250.3 ± 1.2
333.15 K, x1 = 0.8012	874.21 ± 0.24	1.48822 ± 0.00037	1274 ± 1.2
333.15 K, x1 = 0.8998	903.72 ± 0.25	1.5043 ± 0.00037	1302.5 ± 1.2
333.15 K, x1 = 1	937.77 ± 0.23	1.52274 ± 0.00037	1336.4 ± 1.2
343.15 K, x1 = 0.1021	726.25 ± 0.25	1.4078 ± 0.00037	1122.2 ± 1.2
343.15 K, x1 = 0.2015	740.94 ± 0.25	1.41563 ± 0.00037	1132.6 ± 1.2
343.15 K, x1 = 0.307	758.06 ± 0.24	1.42483 ± 0.00037	1146.8 ± 1.2
343.15 K, x1 = 0.3998	774.5 ± 0.24	1.43363 ± 0.00037	1159.3 ± 1.2
343.15 K, x1 = 0.4985	793.67 ± 0.24	1.44396 ± 0.00037	1175.4 ± 1.2
343.15 K, x1 = 0.5961	814.59 ± 0.24	1.45528 ± 0.00037	1192.4 ± 1.2
343.15 K, x1 = 0.7019	839.81 ± 0.24	1.46911 ± 0.00037	1214.6 ± 1.2
343.15 K, x1 = 0.8012	866.35 ± 0.24	1.48355 ± 0.00037	1238.2 ± 1.2
343.15 K, x1 = 0.8998	895.83 ± 0.25	1.49932 ± 0.00037	1266.4 ± 1.2
343.15 K, x1 = 1	929.8 ± 0.23	1.51795 ± 0.00037	1299.8 ± 1.2
